# Laboratory results reported in ChEMBL document CHEMBL4196011, “The lead optimization of the polyamine conjugate of flavonoid with a naphthalene motif: Synthesis and biological evaluation” (Eur J Med Chem, 2018).
# Activity calls are given as the source filed them. No cut-off for these calls is given here.
# Experiments:
# HepG2 [1] = assay: Induction of ROS generation in human HepG2 cells after 48 hrs by DCFH-DA staining-based fluorescence assay; type: functional, cell-based
# K562 = assay: Antiproliferative activity against human K562 cells after 48 hrs by MTT assay; type: functional, cell-based; conditions: K562, 48 h
# HepG2 [2] = assay: Antiproliferative activity against human HepG2 cells after 48 hrs by MTT assay; type: functional, cell-based; conditions: HepG2, 48 h
# H22 [3] = assay: Antitumor activity against […] xenografted in Kunming mouse assessed as tumor growth inhibition at 30 mg/kg, iv for 7 consecutive days measured on day 16; type: functional; conditions: 384 h, read-out: TGI
# H22 [4] = assay: Antitumor activity against […] xenografted in Kunming mouse assessed as tumor growth inhibition at 40 mg/kg, iv for 7 consecutive days measured on day 16; type: functional; conditions: 384 h, read-out: TGI
# [5] = Toxicity in iv dosed Kunming mouse assessed as maximum tolerated dose administered for 7 consecutive days; type: organism-based; conditions: in vivo
# Mus musculus = assay: Toxicity in Kunming mouse xenografted with […] H22 cells assessed as effect on kidney weight index at 30 mg/kg, iv administered for 7 consecutive days; type: organism-based; conditions: in vivo
# HepG2 [6] = assay: Induction of apoptosis in human HepG2 cells assessed as viable cells at 2.5 uM after 8 hrs by Annexin V-FITC/propidium iodide staining-based flow cytometry (reference value: 97.43%); type: functional; conditions: HepG2, 8 h, read-out: Activity
# HepG2 [7] = assay: Induction of apoptosis in human HepG2 cells assessed as necrotic cells at 7.5 uM after 8 hrs by Annexin V-FITC/propidium iodide staining-based flow cytometry (reference value: 0.40%); type: functional
# HepG2 [8] = assay: Induction of apoptosis in human HepG2 cells assessed as viable cells at 7.5 uM after 8 hrs by Annexin V-FITC/propidium iodide staining-based flow cytometry (reference value: 97.43%); type: functional; conditions: HepG2, 8 h, read-out: Activity
# HepG2 [9] = assay: Induction of apoptosis in human HepG2 cells assessed as early apoptotic cells at 2.5 uM after 24 hrs by Annexin V-FITC/propidium iodide staining-based flow cytometry (reference value: 2.07%); type: functional
# HepG2 [10] = assay: Induction of apoptosis in human HepG2 cells assessed as necrotic cells at 7.5 uM after 24 hrs by Annexin V-FITC/propidium iodide staining-based flow cytometry (reference value: 0.12%); type: functional
# HepG2 [11] = assay: Induction of apoptosis in human HepG2 cells assessed as viable cells at 7.5 uM after 24 hrs by Annexin V-FITC/propidium iodide staining-based flow cytometry (reference value: 96.97%); type: functional; conditions: HepG2, 24 h, read-out: Activity
# HepG2 [12] = assay: Induction of apoptosis in human HepG2 cells assessed as early apoptotic cells at 5 uM after 24 hrs by Annexin V-FITC/propidium iodide staining-based flow cytometry (reference value: 2.07%); type: functional
# HepG2 [13] = assay: Induction of apoptosis in human HepG2 cells assessed as late apoptotic cells at 5 uM after 24 hrs by Annexin V-FITC/propidium iodide staining-based flow cytometry (reference value: 0.88%); type: functional
# HepG2 [14] = assay: Induction of apoptosis in human HepG2 cells assessed as necrotic cells at 5 uM after 24 hrs by Annexin V-FITC/propidium iodide staining-based flow cytometry (reference value: 0.12%); type: functional
# HepG2 [15] = assay: Induction of apoptosis in human HepG2 cells assessed as early apoptotic cells at 2.5 uM after 36 hrs by Annexin V-FITC/propidium iodide staining-based flow cytometry (reference value: 2.08%); type: functional
# HepG2 [16] = assay: Induction of apoptosis in human HepG2 cells assessed as late apoptotic cells at 7.5 uM after 36 hrs by Annexin V-FITC/propidium iodide staining-based flow cytometry (reference value: 1.08%); type: functional
# HepG2 [17] = assay: Induction of apoptosis in human HepG2 cells assessed as viable cells at 7.5 uM after 36 hrs by Annexin V-FITC/propidium iodide staining-based flow cytometry (reference value: 96.6%); type: functional; conditions: HepG2, 36 h, read-out: Activity
# HepG2 [18] = assay: Induction of apoptosis in human HepG2 cells assessed as early apoptotic cells at 5 uM after 36 hrs by Annexin V-FITC/propidium iodide staining-based flow cytometry (reference value: 2.08%); type: functional
# HepG2 [19] = assay: Induction of apoptosis in human HepG2 cells assessed as late apoptotic cells at 5 uM after 36 hrs by Annexin V-FITC/propidium iodide staining-based flow cytometry (reference value: 1.08%); type: functional
# HepG2 [20] = assay: Induction of apoptosis in human HepG2 cells assessed as necrotic cells at 5 uM after 36 hrs by Annexin V-FITC/propidium iodide staining-based flow cytometry (reference value: 0.24%); type: functional
# HepG2 [21] = assay: Induction of apoptosis in human HepG2 cells assessed as viable cells at 5 uM after 36 hrs by Annexin V-FITC/propidium iodide staining-based flow cytometry (reference value: 96.6%); type: functional; conditions: HepG2, 36 h, read-out: Activity
# HepG2 [22] = assay: Induction of apoptosis in human HepG2 cells assessed as viable cells at 7.5 uM after 48 hrs by Annexin V-FITC/propidium iodide staining-based flow cytometry (reference value: 96.67%); type: functional; conditions: HepG2, 48 h, read-out: Activity
# HepG2 [23] = assay: Induction of apoptosis in human HepG2 cells assessed as early apoptotic cells at 5 uM after 48 hrs by Annexin V-FITC/propidium iodide staining-based flow cytometry (reference value: 1.30%); type: functional
# HepG2 [24] = assay: Induction of apoptosis in human HepG2 cells assessed as necrotic cells at 5 uM after 48 hrs by Annexin V-FITC/propidium iodide staining-based flow cytometry (reference value: 0.08%); type: functional
# HepG2 [25] = assay: Induction of apoptosis in human HepG2 cells assessed as decrease in Bcl2 protein expression after 48 hrs by immunofluorescence staining-based high content screening assay; type: functional, cell-based
# [26] = molecular target: MAP kinase p38 (Homo sapiens) (UniProt O15264+Q15759+Q16539+P53778); assay: Induction of p38 phosphorylation in human HepG2 cells after 48 hrs by immunofluorescence staining-based high content screening assay; type: cell-based
# HepG2 [27] = assay: Induction of apoptosis in human HepG2 cells assessed as increase in p53 protein expression after 48 hrs by immunofluorescence staining-based high content screening assay; type: functional, cell-based
# HepG2 [28] = assay: Induction of apoptosis in human HepG2 cells assessed as increase in cleaved PARP1 levels after 48 hrs by immunofluorescence staining-based high content screening assay; type: functional, cell-based
# HepG2 [29] = assay: Induction of autophagy in human HepG2 cells assessed as formation of autolysosomes at 2.5 to 7.5 uM preincubated cells with 3-MA for 2 hrs followed by compound addition measured after 48 hrs by MDC staining-based assay; type: functional, cell-based
# HepG2 [30] = assay: Induction of autophagy in human HepG2 cells assessed as upregulation of beclin1 expression at 5 uM by Western blot analysis; type: functional, cell-based
# HepG2 [31] = assay: Induction of autophagy in human HepG2 cells assessed as increase in LC3-2 expression at 5 uM in presence of autophagy inhibitor 3-MA by Western blot analysis; type: functional, cell-based
# HepG2 [32] = assay: Induction of autophagy in human HepG2 cells assessed as upregulation of beclin1 expression at 5 uM in presence of autophagy inhibitor 3-MA by Western blot analysis; type: functional, cell-based
# [33] = Drug uptake in human HepG2 cells assessed as PAT-mediated compound uptake at 10 uM after 8 hrs in presence of spermidine by HCS analysis; type: ADME, cell-based; conditions: hepg2, 8 h
# [34] = Cytotoxicity against human QSG7701 cells up to 15 uM after 48 hrs by MTT assay; type: cell-based
compound,measurement,setting,value
COc1ccc2cc(-c3oc4c(CNCCCCN)cccc4c(=O)c3OC)ccc2c1Br.Cl.Cl,Activity,HepG2 [1],Dose-dependent effect
same,IC50,K562,13.4 µM
same,IC50,HepG2 [2],7.1 µM
same,inhibition in vivo at 30 mg/kg,H22 [3],63.6%
same,inhibition in vivo at 40 mg/kg,H22 [4],69.1%
same,MTD at 7 days,[5],50 mg/kg
same,Activity,Mus musculus,Non-Toxic
same,viability at 2.5 µM,HepG2 [6],96.1%
same,Activity,HepG2 [7],0.05%
same,viability at 7.5 µM,HepG2 [8],78.5%
same,Activity,HepG2 [9],10.46%
same,Activity,HepG2 [10],4.51%
same,viability at 7.5 µM,HepG2 [11],67.2%
same,Activity,HepG2 [12],15.76%
same,Activity,HepG2 [13],2.03%
same,Activity,HepG2 [14],0.05%
same,Activity,HepG2 [15],6.24%
same,Activity,HepG2 [16],6.3%
same,viability at 7.5 µM,HepG2 [17],64.7%
same,Activity,HepG2 [18],16.72%
same,Activity,HepG2 [19],2.15%
same,Activity,HepG2 [20],0.09%
same,viability at 5 µM,HepG2 [21],81%
same,viability at 7.5 µM,HepG2 [22],45.6%
same,Activity,HepG2 [23],26.36%
same,Activity,HepG2 [24],3.39%
same,Activity,HepG2 [25],Active
same,Activity,[26],Dose-dependent effect
same,Activity,HepG2 [27],Dose-dependent effect
same,Activity,HepG2 [28],Dose-dependent effect
same,Activity,HepG2 [29],inactive
same,Activity,HepG2 [30],Active
same,Activity,HepG2 [31],inactive
same,Activity,HepG2 [32],inactive
same,Drug uptake,[33],Not Active
same,Activity,[34],Non-Toxic
